Assay results from PubChem BioAssay (NCI).
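In this assay, cells in 96-well plates receive the compound at five concentrations for 48 hours. Endpoints are linearly interpolated between the surrounding concentrations. GI50: concentration for 50% inhibition of growth. Definition used: TGI = concentration required for complete inhibition of growth.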

Experiments:
Experiment in all cases: DTP human tumour cell line panel, 48 h
HCT-15 colon = test system: HCT-15 colon
HOP-92 NSCLC = test system: HOP-92 NSCLC
EKVX NSCLC = test system: EKVX NSCLC
HCT-116 colon = test system: HCT-116 colon
SN12C renal = test system: SN12C renal
A549 NSCLC = test system: A549 NSCLC
BT-549 breast = test system: BT-549 breast
CCRF-CEM leukemia = test system: CCRF-CEM leukemia
SNB-75 CNS = test system: SNB-75 CNS
SF-268 CNS = test system: SF-268 CNS

| SMILES | GI50 (HCT-15 colon) [µM] | TGI (HCT-15 colon) [µM] | GI50 (HOP-92 NSCLC) [µM] | TGI (HOP-92 NSCLC) [µM] | GI50 (EKVX NSCLC) [µM] | TGI (EKVX NSCLC) [µM] | GI50 (HCT-116 colon) [µM] | TGI (HCT-116 colon) [µM] | GI50 (SN12C renal) [µM] | TGI (SN12C renal) [µM] | GI50 (A549 NSCLC) [µM] | TGI (A549 NSCLC) [µM] | GI50 (BT-549 breast) [µM] | TGI (BT-549 breast) [µM] | GI50 (CCRF-CEM leukemia) [µM] | TGI (CCRF-CEM leukemia) [µM] | GI50 (SNB-75 CNS) [µM] | TGI (SNB-75 CNS) [µM] | GI50 (SF-268 CNS) [µM] | TGI (SF-268 CNS) [µM] |
| --- | --- | --- | --- | --- | --- | --- | --- | --- | --- | --- | --- | --- | --- | --- | --- | --- | --- | --- | --- | --- |
| Nc1nc2ccc([C@@H]3Nc4ccc5[nH]ncc5c4[C@H]4[C@H]5CCC(C5)[C@H]43)cc2s1 | 0.505 | 2.64 | 1.67 | 11.8 | 1.47 | 4.92 | 0.488 | 1.84 | 1.53 | 4.12 | 0.994 | 3.98 | 1.25 | 5.25 | 0.507 | 19 | 0.319 | 2.47 | 1.49 | 4.52 |
| COc1cc2c3c(n(CCCN)c(=O)c2cc1OC)-c1ccc(F)cc1C3=O | 2.24 | 6.89 | 8.91 | 42.9 | 11.6 | 25.1 | 1.19 | 2.46 | 4.29 | 17.4 | 4.94 | 21.4 | 3.81 | 14.4 | 0.17 | 0.987 | 11.1 | 27 | 3.08 | 20.3 |
| O=C1C(Cl)=C(Nc2ccc3cn[nH]c3c2)C(=O)c2ccccc21 | 1.01 | 2.17 | 1.57 | 3 | 1.5 | 4.6 | 1.43 | 2.78 | 1.49 | 3.11 | 2.38 | 5.86 | 1.5 | 2.82 | 1.52 | 3.91 | 1.67 | 3.03 | 1.63 | 3 |
| C=C1C(=O)O[C@H]2[C@H]1CC/C(COC(=O)C(=O)c1c[nH]c3ccc(OC)cc13)=C\CC[C@@]1(C)O[C@@H]21 | 3.77 | 7.82 | 1.74 | 3.85 | 9.85 | 24.7 | 4.48 | 8.73 | 6.1 | 12.2 | 8.64 | 17.3 | 1.82 | 3.53 | 2.47 | 23 | 6.13 | 10.4 | 6.75 | 13 |
| CCCCCCCCOc1ccc(/C=N/Nc2cc(C)nc3ccc(Cl)cc23)cc1 | 1.85 | 3.38 | 1.51 | 3.02 | 1.8 | 3.33 | 1.83 | 3.81 | 1.78 | 3.35 | 1.7 | 3.52 | 14.2 | 31.4 | 2.04 | 5.28 | 1.86 | 3.49 | 2.21 | 4.18 |
| COc1cc2c3c(n(CCN)c(=O)c2cc1OC)-c1cc2c(cc1C3=O)OCO2 | 0.471 |  | 0.82 | 2.62 | 1.59 | 3.97 | 0.0521 |  | 0.254 | 1.3 | 0.506 | > 23.7 | 0.959 | 3.01 | < 0.01 |  | 0.143 | 2.43 | 0.749 | 3.18 |
| O=C1c2cccnc2-c2nc(/C=C/c3ccccc3)cc3c2c1nc1ccccc13 | 0.844 | 2.1 | 17.4 | > 100 | 2.82 | 14 | 1.95 | 6.14 | 2.77 | 9.01 | 2.2 | 4.34 | 6.38 | 17.3 | 3.06 | > 100 | 2 | 8.06 | 2.24 | > 21.2 |
